In US8993622B2, “Antiviral compounds” (Eirium AB, priority 2010, dated 2015):

Each compound was assayed on Ad5 (assay: microbe, parasite or virus in culture). Conditions: A549 cells.
Format: cell-based, human adenovirus

Row | Compound | effect on the replication of Ad5 (QPCR)
1 | O=C(Nc1ccccc1C(=O)O)c1ccccc1 [Compound A01, reference compound] | Neither the smaller (A01) nor the larger (A03) molecule showed any anti-adenoviral effect
2 | O=C(Nc1ccccc1C(=O)Nc1ccccc1C(=O)Nc1ccccc1C(=O)O)c1ccccc1 [Compound A03, reference compound] | Neither the smaller (A01) nor the larger (A03) molecule showed any anti-adenoviral effect

Same assay, conditions: Ad5, 15 μM (Table 2)

Row | Compound | Inh. (% inhibition of Ad5 at 15 μM)
3 | CCOC(=O)c1ccc(NC(=O)c2ccccc2NC(=O)c2ccccc2)cc1 [Compound 7b, Ethyl 4-[(2-benzoylamino)benzoylamino]-benzoate] | 8%
4 | CCOC(=O)c1ccccc1NC(=O)c1cccc(NC(=O)c2ccccc2)c1 [Compound 7c, Ethyl 2-[(3-benzoylamino)benzoylamino]-benzoate] | 25%
5 | CCOC(=O)c1ccccc1NC(=O)c1ccc(NC(=O)c2ccccc2)cc1 [Compound 7d, Ethyl 2-[(4-benzoylamino)benzoylamino]-benzoate] | 15%
6 | O=C(O)c1cccc(NC(=O)c2ccccc2NC(=O)c2ccccc2)c1 [Compound 8a, 3-[(2-benzoylamino)benzoylamino]-benzoic acid] | 8%
7 | O=C(O)c1ccc(NC(=O)c2ccccc2NC(=O)c2ccccc2)cc1 [Compound 8b, 4-[(2-benzoylamino)benzoylamino]-benzoic acid] | 8%
8 | O=C(Nc1cccc(C(=O)Nc2ccccc2C(=O)O)c1)c1ccccc1 [Compound 8c, 2-[(3-benzoylamino)benzoylamino]-benzoic acid] | 39%

Same assay, conditions: Human adenovirus sp., A549, read-out: % Inh. at 5 μM

Row | Compound | inhibition at 5 µM
9 | Cc1ccc(C(=O)Nc2ccccc2C(=O)Nc2ccccc2C(=O)O)cc1 [Compound 12c, 2-[[2-(4-Methyl-benzoylamino)benzoyl]amino]-benzoic acid] | 89.2%
10 | NC(=O)c1ccccc1NC(=O)c1cccc(NC(=O)c2ccccc2)c1 [Compound 12d, 2-[[3-(Benzoylamino)benzoyl]amino]-benzamide] | 51.1%
11 | Cc1ccccc1C(=O)Nc1cccc(C(=O)Nc2ccccc2C(=O)O)c1 [Compound 12e, 2-[[3-(2-Methyl-benzoylamino)benzoyl]amino]-benzoic acid] | 44%
12 | COc1ccc(C(=O)Nc2ccccc2C(=O)Nc2ccccc2C(=O)O)cc1 [Compound 12f, 2-[[2-(4-Methoxy-benzoylamino)benzoyl]amino]-benzoic acid] | 25.2%
13 | Cc1ccc(C(=O)Nc2ccccc2C(=O)Nc2ccccc2C)cc1 [Compound 12g, 4-Methyl-N-{2-[(2-methylphenyl)carbamoyl]phenyl}-benzamide] | 24.5%

Same assay, conditions: Human adenovirus sp., A549, read-out: % Inh. at 20 μM

Row | Compound | inhibition at 20 µM
14 | Cc1ccc(C(=O)Nc2ccccc2C(=O)Nc2ccccc2C(=O)O)cc1 [Compound 12c, 2-[[2-(4-Methyl-benzoylamino)benzoyl]amino]-benzoic acid] | 98.5%
15 | NC(=O)c1ccccc1NC(=O)c1cccc(NC(=O)c2ccccc2)c1 [Compound 12d, 2-[[3-(Benzoylamino)benzoyl]amino]-benzamide] | 44.2%
16 | Cc1ccccc1C(=O)Nc1cccc(C(=O)Nc2ccccc2C(=O)O)c1 [Compound 12e, 2-[[3-(2-Methyl-benzoylamino)benzoyl]amino]-benzoic acid] | 55.8%
17 | COc1ccc(C(=O)Nc2ccccc2C(=O)Nc2ccccc2C(=O)O)cc1 [Compound 12f, 2-[[2-(4-Methoxy-benzoylamino)benzoyl]amino]-benzoic acid] | 96.5%
18 | Cc1ccc(C(=O)Nc2ccccc2C(=O)Nc2ccccc2C)cc1 [Compound 12g, 4-Methyl-N-{2-[(2-methylphenyl)carbamoyl]phenyl}-benzamide] | 22.2%

Same assay, conditions: Human adenovirus sp., A549, read-out: Inh. (% inhibition of Ad5 at 15 μM)

Row | Compound | inhibition at 15 µM
19 | CCOC(=O)c1cccc(NC(=O)c2ccccc2NC(=O)c2ccccc2)c1 [Compound 7a, 4-Ethyl 3-[(2-benzoylamino)benzoylamino]-benzoate] | 0%
20 | O=C(Nc1ccc(C(=O)Nc2ccccc2C(=O)O)cc1)c1ccccc1 [Compound 8d, 2-[(4-benzoylamino)benzoylamino]-benzoic acid] | 47%
21 | O=C(Nc1ccccc1C(=O)Nc1ccccc1)c1ccccc1 [Compound 11, 2-Benzoylamino-N-phenyl-benzamide] | 18%

Same assay, conditions: second generation inhibitors, Table 4

Row | Compound | activity compared with A02 (inhibition of adenovirus replication)
22 | O=C(O)c1ccccc1NC(=O)c1ccccc1NC(=O)C1CCCCC1 [Compound 17e, 2-[[2-(Cyclohexanecarboxylamino)benzoyl]amino]benzoic acid] | diminished but not abolished activity
23 | O=C(O)c1ccccc1NC(=O)c1ccccc1NCc1ccccc1 [Compound 17g, 2-[2-(Benzylamino)benzoylamino]benzoic acid] | diminished but not abolished activity
24 | O=C(Nc1ccccc1C(=O)Nc1ccccc1C(=O)O)c1ccccc1F [Compound 17h, 2-[2-(2-Fluorobenzoylamino)-benzoylamino]benzoic acid] | statistically significantly higher activity than A02

Same assay, conditions: unidentified adenovirus, A549

Row | Compound | EC50
25 | O=C(O)c1ccccc1NC(=O)c1ccccc1NCc1ccccc1 [Compound 17g, 2-[2-(Benzylamino)benzoylamino]benzoic acid] | 11.4 µM
26 | O=C(Nc1ccccc1C(=O)Nc1ccccc1C(=O)O)c1ccccc1F [Compound 17h, 2-[2-(2-Fluorobenzoylamino)-benzoylamino]benzoic acid] | 2.3 µM

Same assay, conditions: unidentified adenovirus, A549, read-out: % Inh. at 5 μM

Row | Compound | inhibition at 5 µM
27 | O=C(O)c1ccccc1NC(=O)c1ccccc1NC(=O)C1CCCCC1 [Compound 17e, 2-[[2-(Cyclohexanecarboxylamino)benzoyl]amino]benzoic acid] | 20 ± 1%
28 | O=C(O)c1ccccc1NC(=O)c1ccccc1NCc1ccccc1 [Compound 17g, 2-[2-(Benzylamino)benzoylamino]benzoic acid] | 44 ± 17%
29 | O=C(Nc1ccccc1C(=O)Nc1ccccc1C(=O)O)c1ccccc1F [Compound 17h, 2-[2-(2-Fluorobenzoylamino)-benzoylamino]benzoic acid] | 96 ± 1%

Same assay, conditions: unidentified adenovirus, A549, read-out: % Inh. at 15 μM

Row | Compound | inhibition at 15 µM
30 | O=C(O)c1ccccc1NC(=O)c1ccccc1NC(=O)C1CCCCC1 [Compound 17e, 2-[[2-(Cyclohexanecarboxylamino)benzoyl]amino]benzoic acid] | 55 ± 11%
31 | O=C(O)c1ccccc1NC(=O)c1ccccc1NCc1ccccc1 [Compound 17g, 2-[2-(Benzylamino)benzoylamino]benzoic acid] | 79 ± 5%
32 | O=C(Nc1ccccc1C(=O)Nc1ccccc1C(=O)O)c1ccccc1F [Compound 17h, 2-[2-(2-Fluorobenzoylamino)-benzoylamino]benzoic acid] | 96 ± 1%

Each compound was assayed on cells (assay: Cellular toxicity of select compounds (% dead cells, CC50)). Conditions: 30 μM, 24 h.
Format: cell-based

Row | Compound | Toxicity at 30 μM (% dead cells after 24 h)
33 | O=C(O)c1ccccc1NC(=O)c1ccccc1NCc1ccccc1 [Compound 17g, 2-[2-(Benzylamino)benzoylamino]benzoic acid] | 6 ± 10%
34 | O=C(Nc1ccccc1C(=O)Nc1ccccc1C(=O)O)c1ccccc1F [Compound 17h, 2-[2-(2-Fluorobenzoylamino)-benzoylamino]benzoic acid] | 17 ± 9%

Same assay, conditions: 60 μM, 24 h

Row | Compound | Toxicity at 60 μM (% dead cells after 24 h)
35 | O=C(O)c1ccccc1NC(=O)c1ccccc1NCc1ccccc1 [Compound 17g, 2-[2-(Benzylamino)benzoylamino]benzoic acid] | 11 ± 13%
36 | O=C(Nc1ccccc1C(=O)Nc1ccccc1C(=O)O)c1ccccc1F [Compound 17h, 2-[2-(2-Fluorobenzoylamino)-benzoylamino]benzoic acid] | 29 ± 12%

Same assay, conditions: Table 7

Row | Compound | cellular toxicity compared with A02
37 | O=C(Nc1ccccc1C(=O)Nc1ccccc1C(=O)O)c1ccccc1F [Compound 17h, 2-[2-(2-Fluorobenzoylamino)-benzoylamino]benzoic acid] | slightly more toxic than A02
